Here are results for five molecules from patent publication US20050059661A1, “Use of tyrosine kinase inhibitors for the treatment of inflammatory processes” (Boehringer Ingelheim International GmbH, priority 2003, published 2005).

Structures are written as SMILES.

In one test the test system is cigarette smoke-induced influx of neutrophilic granulocytes into the lung tissue. The test can be described thus: Test 1: Inhibition of the smoke-induced accumulation of granulocytes in the lung tissue (MPO activity). The test is classed as in vivo, rats (Sprague-Dawley). The settings on record: male Sprague-Dawley rats, 5 days smoke from 8 cigarettes per day, intratracheal dose 30 min before exposure, lung tissue MPO, linear regression. An excerpt:
• A=4-[(R)-(1-phenyl-ethyl)amino]-6-{[4-((R)-6-methyl-2-oxo-morpholin-4-yl)-1-oxo-2-buten-1-yl]amino}-7-methoxy-quinazoline, • B=4-[(3-chloro-4-fluorophenyl)amino]-6-({4-[N,N-bis-(2-methoxy-ethyl)-amino]-1-oxo-2-buten-1-yl}amino)-7-[(tetrahydrofuran-2-yl)methoxy]-quinazoline, • C=4-[(3-chloro-4-fluoro-phenyl)amino]-6-[2-(2,2-dimethyl-6-oxo-morpholin-4-yl)-ethoxy]-7-methoxy-quinazoline, • D=4-[(3-chloro-4-fluoro-phenyl)amino]-6-[2-(2,2-dimethyl-6-oxo-morpholin-4-yl)-ethoxy]-7-[(R)-(tetrahydrofuran-2-yl)methoxy]-quinazoline and • E=4-[(3-chloro-4-fluoro-phenyl)amino]-7-[2-(2,2-dimethyl-6-oxo-morpholin-4-yl)-ethoxy]-6-[(S)-(tetrahydrofuran-2-yl)methoxy]-quinazoline were tested as follows to investigate their anti-inflammatory activity: Test 1: Inhibition of the Smoke-Induced Accumulation of Granulocytes in the Lung Tissue Lung indications: Inhibition of the cigarette smoke-induced influx of neutrophilic granulocytes into the lung tissue by the EGF-receptor kinase inhibitor 4-[(R)-(1-phenyl-ethyl)amino]-6-{[4-((R)-6-methyl-2-oxo-morpholin-4-yl)-1-oxo-2-buten-1-yl]amino}-7-methoxy-quinazoline (compound A). Male rats (strain: Sprague-Dawley) weighing from 250-300 g were exposed for 5 days to the smoke from 8 cigarettes per day. The animals in the group treated with compound A, anaesthetised with isofluran, were given an intratracheal dose of 0.03 or 0.1 mg/kg of compound A in a volume of 0.05 ml each day 30 min before the start of the exposure to smoke. On the last day of the test the animals were killed 4 hours after the last exposure to smoke and the lung tissue was removed. A sample of 70-200 mg was taken from each lung and placed in a test tube prepared with 1 ml of 0.5% hexadecyltrimethylammonium bromide. The samples were homogenised for 15 sec using an Ultraturrax. The homogenised samples were centrifuged at 15700 g in an Eppendorf bench centrifuge for 5 min at ambient temperature. […] of the supernatant was removed and mixed with […] of phosphate buffer (50 mmol/l) containing 0.197 mg/ml of O-dianisidine dihydrochloride. After 10 minutes' incubation at ambient temperature the absorption was measured with a spectral photometer at a wavelength of 450 nm. The dosage which led to a 50% inhibition of the MPO activity (═ID50) was determined by linear regression.
For `COc1cc2ncnc(N[C@H](C)c3ccccc3)c2cc1NC(=O)C=CCN1CC(=O)O[C@H](C)C1` [A, 4-[(R)-(1-phenyl-ethyl)amino]-6-{[4-((R)-6-methyl-2-oxo-morpholin-4-yl)-1-oxo-2-buten-1-yl]amino}-7-methoxy-quinazoline], the “ID50 (dosage which led to a 50% inhibition of the MPO activity)” value is on record as 0.3 mg/kg. Take `COCCN(CC=CC(=O)Nc1cc2c(Nc3ccc(F)c(Cl)c3)ncnc2cc1OCC1CCCO1)CCOC` (stereo not drawn) [B, 4-[(3-chloro-4-fluorophenyl)amino]-6-({4-[N,N-bis-(2-methoxy-ethyl)-amino]-1-oxo-2-buten-1-yl}amino)-7-[(tetrahydrofuran-2-yl)methoxy]-quinazoline]: the “ID50 (dosage which led to a 50% inhibition of the MPO activity)” value is 0.2 mg/kg. Consider `COc1cc2ncnc(Nc3ccc(F)c(Cl)c3)c2cc1OCCN1CC(=O)OC(C)(C)C1` [C, 4-[(3-chloro-4-fluoro-phenyl)amino]-6-[2-(2,2-dimethyl-6-oxo-morpholin-4-yl)-ethoxy]-7-methoxy-quinazoline], for which the “ID50 (dosage which led to a 50% inhibition of the MPO activity)” value worked out at 1 mg/kg. `CC1(C)CN(CCOc2cc3c(Nc4ccc(F)c(Cl)c4)ncnc3cc2OC[C@H]2CCCO2)CC(=O)O1` [D, 4-[(3-chloro-4-fluoro-phenyl)amino]-6-[2-(2,2-dimethyl-6-oxo-morpholin-4-yl)-ethoxy]-7-[(R)-(tetrahydrofuran-2-yl)methoxy]-quinazoline]: the “ID50 (dosage which led to a 50% inhibition of the MPO activity)” value was 1.1 mg/kg. Regarding `CC1(C)CN(CCOc2cc3ncnc(Nc4ccc(F)c(Cl)c4)c3cc2OC[C@@H]2CCCO2)CC(=O)O1` [E, 4-[(3-chloro-4-fluoro-phenyl)amino]-7-[2-(2,2-dimethyl-6-oxo-morpholin-4-yl)-ethoxy]-6-[(S)-(tetrahydrofuran-2-yl)methoxy]-quinazoline], the “ID50 (dosage which led to a 50% inhibition of the MPO activity)” value is on record as 0.4 mg/kg.

Staying with this test, now noted: rats, intratracheal 0.03 or 0.1 mg/kg daily for 5 days, 30 min before smoke exposure.
For the molecule `COc1cc2ncnc(N[C@H](C)c3ccccc3)c2cc1NC(=O)C=CCN1CC(=O)O[C@H](C)C1` [A, 4-[(R)-(1-phenyl-ethyl)amino]-6-{[4-((R)-6-methyl-2-oxo-morpholin-4-yl)-1-oxo-2-buten-1-yl]amino}-7-methoxy-quinazoline], the “inhibition of the smoke-induced accumulation of granulocytes (myeloperoxidase content of lung tissue)” value was “significant (p<0.005) inhibition”.
